These are literature values, as cited in US11904002B2, “Construction and methods of use of a therapeutic cancer vaccine library comprising fusion-specific vaccines” (BostonGene Corporation, priority 2016, dated 2024).

The test system of this data set is CD8+ T-cells. The note with it: CD8+ T-cells generated as a consequence of anti-PD1 treatment; murine MHC H-2Kb.

For the sequence VGFNFRTL, the “recognition by CD8+ T-cells” value was “targets of CD8+ T-cells”.

For ITYTWTRL, the “recognition by CD8+ T-cells” value is reported as “targets of CD8+ T-cells”.
